In paper PMC7357788, “Overlapping functions and protein-protein interactions of LRR-extensins in Arabidopsis” (PLoS Genetics, 2020):
“Also recorded” adds a separate entry of the source.

Experiments:
LRX4 [1] = conditions: ref [15],[41]; cited from earlier work
LRX3, LRX4, and LRX5 = conditions: vegetative tissues; ref [40],[41]; cited from earlier work
Source text: LRX proteins were recently identified as high-affinity binding sites for RALF peptides, with the binding spectrum differing among the LRXs. […] Whether and how the binding of RALFs and FER to LRXs influences the interaction of these proteins remains to be investigated. It is also unknown to what extent the different LRXs are functionally similar and whether they share FER as a common interaction ...

Arabidopsis seedlings = test: Root growth inhibition assay; format: in vivo, Arabidopsis thaliana; conditions: five days in liquid medium, 1 μM RALF1, student T-test, n = 6, p<0.001 vs control
Source text: Supplementary file pgen.1008847.s003.pdf: S3 Fig Synthetic RALF1 peptide activity. […] Error bars represent standard error of the mean. (PDF) Click here for additional data file.

LRX4 (LRX4^ΔE-FLAG) = test: BLITZ (biolayer interferometry) RALF1-LRX4 binding; set-up: species or system Arabidopsis thaliana; conditions: purified LRX^ΔE expressed in N. benthamiana, synthetic RALF1 peptide, association 120 s, dissociation 120 s
Protocol: (§1) The kinetics of the interaction of LRX proteins with RALF1 were tested with Biolayer Interferometry (BLITZ). The LRX^ΔE-FLAG proteins of LRX1, LRX3, LRX4, and LRX5 used for this experiment were expressed transiently in tobacco. […] For RALF1, in vitro synthesized peptide was used. […] While the LRX^ΔE-FLAG had to be soluble in order to get purified prior to application on the sensor (for details, see Materials and Methods), it cannot be completely ruled out that LRX3^ΔE-FLAG has a reduced solubility in this experiment that would provide an alternative explanation for the observed high Kd.
(§2) The BLITZ experiments were performed as previously described. The LRR^ΔE–FLAG versions of the different LRXs were expressed using the 35S promoter in N. benthamiana, presence of proteins was checked by immunoblotting, and proteins were immune-precipitated as described above. […] Protein concentration was determined by Qubit measurement (Quant-iTTM Protein Assay kit, Invitrogen). […] Different RALF synthetic peptide (PHTD peptides) concentrations (200 μM, 150 μM, 100 μM, 50 μM, 20 μM, 15 μM, 10 μM, 4 μM, 2 μM and 0.2 μM) were added to quantify the protein interaction.
(§3) Supplementary file pgen.1008847.s004.pdf: S4 Fig BLITZ output data. […] Association/dissociation or RALF1 depends on the concentration of applied RALF1, based on which the Kd is calculated. […]

FER = conditions: ref [15],[41]; cited from earlier work
LRX1 (LRX1^ΔE-FLAG) = test: BLITZ (biolayer interferometry) RALF1-LRX1 binding; set-up: species or system Arabidopsis thaliana; conditions: purified LRX^ΔE expressed in N. benthamiana, synthetic RALF1 peptide, association 120 s, dissociation 120 s
Protocol: as §1, §2, §3

LRX1^ΔE = test: Co-IP of LRX1^ΔE-HA with RALF1-FLAG; format: binding, Arabidopsis thaliana; conditions: Co-IP and immunoblotting, transient expression in N. benthamiana
Protocol: Here, we tested binding of RALF1 to LRX1.
(§4) For pulldown and Co-IP analysis of the different constructs indicated in the experiments DNA was infiltrated into Nicotiana benthamiana leaves, and after 48 hrs, the leaves were excised and ground in liquid nitrogen as described in [62]. Two hundred mg of tissue powder was re-suspended in 500 μL extraction buffer [200 mM Tris-HCl (pH 7.5), 150 mM NaCl, 1 mM PMSF, protease inhibitor and 0.5% Triton X-100]. The suspension was incubated on ice for 30 minutes and then centrifuged at 11,000 rpm for 20 minutes at 4°C. The supernatant (200 μL) was then incubated with 10 μL anti-HA (Thermo Scientific, 88837), or anti-FLAG magnetic beads overnight at 4°C on a rotating shaker. If RALF1 peptide was added, the peptide was diluted in such way that for every sample 1μL of peptide was added to the protein extracts. After incubation, the beads were washed five times with the wash buffer (extraction buffer containing 0.05% Triton X-100) and boiled in SDS-PAGE loading buffer for 15 minutes at 75°C. The immunoprecipitates were then run on an SDS-PAGE gel and transferred to nitrocellulose membrane to perform immunoblotting using the following antibodies: anti-FLAG M2 (Sigma-Aldrich, F3165), anti-GFP (Biolegend, 902601), anti-HA-HRP 3F10 (Roche, 12 013 819 001) and anti-mouse-HRP (Sigma Aldrich, A 4416). […]

LRX5 (LRX5^ΔE-FLAG) = test: BLITZ (biolayer interferometry) RALF1-LRX5 binding; set-up: species or system Arabidopsis thaliana; conditions: purified LRX^ΔE expressed in N. benthamiana, synthetic RALF1 peptide, association 120 s, dissociation 120 s
Protocol: as §1, §2

LRX3 (LRX3^ΔE-FLAG) = test: BLITZ (biolayer interferometry) RALF1-LRX3 binding; set-up: species or system Arabidopsis thaliana; conditions: compared with LRX1, LRX4, and LRX5
Protocol: as §1, §2

LRX1 = test: Yeast-two-hybrid RALF1-LRX1; format: binding, Arabidopsis thaliana; conditions: Y2H, yeast strain PJ69-4A, growth on -Trp, Leu, His, Ade drop-out medium
Source text: (§5) The BD-LRX4 and AD-FER^ECD constructs for the Yeast-two-hybrid experiment were cloned as previously described, where NtermFER equals AD-FER^ECD and LRR4 equals BD-LRX4. For the BD-LRX1/2/3/5 constructs, the coding sequence of the LRR domain of the LRXs was amplified using primers (S3 Table) to introduce a BamHI and a XhoI site at the 5’ and 3’ end of the PCR fragments, respectively. These were cloned into pJET1.2 (Thermo Scientific) and correct clones were cut with BamHI and XhoI and ligated into pGBKT7 cut with BamHI and SalI. The AD-RALF1 construct was cloned into pJET1.2 (Thermo Scientific) by amplification of the coding sequence with the primers y2h_RALF1_F and y2h_RALF1_R. A correct clone was cut with EcoRI and XmaI and ligated into pGADT7 cut with EcoRI and XmaI.
(§6) Transformation of the yeast strain PJ69-4A [63] was done following standard procedures and quadruple drop-out medium lacking Leu, Trp, His, and Ade were used to screen for positive interactions after 4 days incubation at 30°C. Three different colonies containing both vectors were mixed and plated in triplicates on quadruple drop-out medium.
(§7) Supplementary file pgen.1008847.s002.pdf: S2 Fig Interaction of LRX1 and RALF1 in yeast. The yeast strain PJ69-4A was transformed with pGADT7-RALF1 and pGBKT7-LRR1 or pGBKT7-LRR4, and with either of the constructs with empty plasmids for the negative controls. […]

[2] = tested on: LRX1^ΔE-FER^ECD interaction; test: Co-IP: effect of added RALF1 on LRX1^ΔE-FER^ECD interaction; format: binding, Arabidopsis thaliana; conditions: synthetic RALF1 peptide 50, 100, 200, 1000 nM added to extracts
Source text: In a next step, the dynamics of LRX-RALF1-FER interaction was investigated with a focus on LRX1. To this end, extracts used to show Co-IP of LRX1^ΔE and FER^ECD were supplemented with increasing concentrations of RALF1 peptide.
as §4, with “75°C.” for “75°C. The immunoprecipitates were then run on an SDS-PAGE gel and transferred to nitrocellulose membrane to perform immunoblotting using the following antibodies: anti-FLAG M2 (Sigma-Aldrich, F3165), anti-GFP (Biolegend, 902601), anti-HA-HRP 3F10 (Roche, 12 013 819 001) and anti-mouse-HRP (Sigma Aldrich, A 4416).”

LRX4 [3] = test: Yeast-two-hybrid RALF1-LRX4; format: binding, Arabidopsis thaliana; conditions: Y2H, yeast strain PJ69-4A, growth on -Trp, Leu, His, Ade drop-out medium
Source text: as §5, §6, §7

Sequence of LRX4 (LRX4^ΔE-FLAG) (Q9LHF1 26-403 limits assumed, stated change not applied): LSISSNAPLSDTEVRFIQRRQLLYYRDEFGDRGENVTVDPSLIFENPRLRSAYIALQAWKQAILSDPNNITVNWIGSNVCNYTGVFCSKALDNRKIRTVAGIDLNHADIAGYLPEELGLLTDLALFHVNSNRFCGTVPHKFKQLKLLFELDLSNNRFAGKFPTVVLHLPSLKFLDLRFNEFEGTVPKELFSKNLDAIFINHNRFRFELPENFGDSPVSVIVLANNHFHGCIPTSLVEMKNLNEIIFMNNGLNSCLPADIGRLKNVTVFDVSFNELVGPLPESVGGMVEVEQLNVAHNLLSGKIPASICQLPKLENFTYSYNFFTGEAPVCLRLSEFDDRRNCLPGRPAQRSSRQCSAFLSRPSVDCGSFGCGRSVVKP
Sequence of LRX5 (LRX5^ΔE-FLAG) (Q9SN46 32-405 limits assumed, stated change not applied): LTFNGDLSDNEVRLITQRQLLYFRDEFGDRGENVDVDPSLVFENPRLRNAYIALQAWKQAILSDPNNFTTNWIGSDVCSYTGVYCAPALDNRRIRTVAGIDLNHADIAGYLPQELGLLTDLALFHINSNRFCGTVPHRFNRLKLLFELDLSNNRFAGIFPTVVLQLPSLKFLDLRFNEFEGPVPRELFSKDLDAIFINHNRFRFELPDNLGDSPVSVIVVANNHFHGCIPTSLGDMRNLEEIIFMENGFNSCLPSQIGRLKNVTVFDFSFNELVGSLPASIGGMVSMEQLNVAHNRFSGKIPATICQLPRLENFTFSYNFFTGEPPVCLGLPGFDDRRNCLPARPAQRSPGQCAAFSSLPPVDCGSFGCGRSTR
Sequence of LRX3 (LRX3^ΔE-FLAG) (Q9T0K5 21-388 limits assumed, stated change not applied): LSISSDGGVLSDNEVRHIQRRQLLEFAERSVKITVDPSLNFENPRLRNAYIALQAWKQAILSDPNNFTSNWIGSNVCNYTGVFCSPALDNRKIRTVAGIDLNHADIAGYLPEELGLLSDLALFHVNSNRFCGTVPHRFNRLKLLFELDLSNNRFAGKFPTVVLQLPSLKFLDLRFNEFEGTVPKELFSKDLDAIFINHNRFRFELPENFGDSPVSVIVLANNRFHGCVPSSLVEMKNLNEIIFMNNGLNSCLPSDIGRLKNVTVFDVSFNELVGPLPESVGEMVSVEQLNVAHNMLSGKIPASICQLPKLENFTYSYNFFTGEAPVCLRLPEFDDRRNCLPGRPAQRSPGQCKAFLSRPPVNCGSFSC
Sequence of LRX1 (LRX1^ΔE-FLAG) (O65375 27-381 limits assumed, stated change not applied): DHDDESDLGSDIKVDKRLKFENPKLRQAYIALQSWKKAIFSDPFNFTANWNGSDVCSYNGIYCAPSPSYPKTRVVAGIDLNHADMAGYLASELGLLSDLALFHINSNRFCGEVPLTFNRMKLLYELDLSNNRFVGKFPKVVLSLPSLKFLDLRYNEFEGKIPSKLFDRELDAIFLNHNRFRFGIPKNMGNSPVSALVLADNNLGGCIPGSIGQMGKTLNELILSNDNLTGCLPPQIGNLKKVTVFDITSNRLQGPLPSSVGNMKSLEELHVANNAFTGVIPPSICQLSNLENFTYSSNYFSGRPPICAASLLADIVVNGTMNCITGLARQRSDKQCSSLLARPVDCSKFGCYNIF

RALF1: in vitro synthesized RALF1 peptide hormone (PHTD peptides); gene At1G02900; expressed as AD-RALF1 in yeast-two-hybrid (ATTKYISYQSLKRNSVPCSRRGASYYNCQNGAQANPYSRGCSKIARCRS; UniProt Q9SRY3 72-120, looked up)
binding to LRX4 (LRX4 [1]): has been shown to bind RALF1
binding to LRX3, LRX4, and LRX5 (LRX3, LRX4, and LRX5): reported to bind
root growth inhibition (Arabidopsis seedlings): effectively inhibited root growth of Arabidopsis seedlings; also recorded: significantly inhibited root growth
Kd (LRX4 (LRX4^ΔE-FLAG)): 5.5 nM
binding to FER (FER): also interacts with FER
Kd (LRX1 (LRX1^ΔE-FLAG)): 4.5 nM
interaction with LRX1^ΔE (LRX1^ΔE): shows binding to RALF1
Kd (LRX5 (LRX5^ΔE-FLAG)): 3.5 nM
affinity of LRX3 for RALF1, in words (LRX3 (LRX3^ΔE-FLAG)): much lower affinity
interaction with LRX1 (LRX1): yeast cells grew effectively in the presence of the two proteins; also recorded: indicates interaction of the LRX proteins with RALF1
effect on LRX1^ΔE-FER^ECD interaction [2]: does not influence the interaction of LRX1^ΔE with FER^ECD; also recorded: did not affect the interaction between LRX1^ΔE and FER^ECD
interaction with LRX4 (LRX4 [3]): indicates interaction of the LRX proteins with RALF1
